Data on 3 molecules can be found in patent US20180179129A1, “SOLVENT COMPOSITIONS FOR USE AS HEXANE REPLACEMENTS” (TBF ENVIRONMENTAL TECHNOLOGY INC., priority 2015, published 2018).

Series [1] is described as follows: Performance test: solvency of G1652 resin. Format: physicochemical. The conditions noted are these: scale 1 = completely insoluble, 10 = completely soluble, >=6 soluble; 0.5 mL, ~20 mg resin, 22° C., 1 hour. Here is the method:
(§1) Several compounds were combined in different initial blends (Table 1). Standardized performance tests on solvency of a variety of resins, including (but not limited to) Kraton resins G1652, KR1164, KR1171, and G1726, Sukorez resin SU100S, and paraffin wax.
(§2) The performance tests on resins were performed as follows: The addition of 0.5 mL of each formulation to an individual screw-cap vial containing a stirbar and resin (G1652: ˜20 mg, SU100S: ˜40 mg, G1726: ˜25 mg, KR1164: ˜20 mg, KR1171, ˜20 mg, paraffin wax: ˜55 mg). The vials were tightly capped and solutions were stirred on a stirplate (400 rpm) at 22° C. for 1 hour. The stirbar was removed and solvency was observed, photos of the results were taken (Formulations 1-27, G1652 and SU100S). The odor of the blends was also tested empirically. Evaporation rates were calculated based on weight averages (% by volume) of individual components.

Series [2] is described as follows: Performance test: solvency of SU100S resin. Format: physicochemical. The conditions noted are these: scale 1 = completely insoluble, 10 = completely soluble, >=6 soluble; 0.5 mL, ~40 mg resin, 22° C., 1 hour. As to the method:
as §1, §2

For series [3] the following is noted: cited from earlier work.

`CCCCCC` [Formulation 27, hexanes]: in series [1], the G1652 solvency is reported as 10. The SU100S solvency in series [2] came out at 10.

On to `COC(C)=O` [Methyl acetate], for which, in series [3] (in the presence of strong aqueous bases or aqueous acids), the stability entry is “not stable”. Besides, the solubility in water in series [3] (room temperature) is reported as 25%.

The molecule `FC(F)(F)c1ccc(Cl)cc1` [Formulation 26, para-chlorobenzotrifluoride] returned a G1652 solvency in series [1] of 10. The SU100S solvency in series [2] stood at 10.
